The test system of experiment [1] is MIA PaCa-2 cells. Kind of experiment: In-vitro anti-proliferative activity in combination with gemcitabine (GMC) on MIA PaCa-2 cells. In kind it is cell-based. On the procedure:
Example 73. In-Vitro Anti-Proliferative Activity of the Compounds of the Present Invention in Combination with Gemcitabine (GMC) on MIA PaCa-2 Cells
MIA PaCa-2 cells were seeded on a 384-well plate at 3000 cells/well, and 20 nM gemcitabine was added. After overnight adherence culture, DMSO or the compounds serially diluted 1:5 from 100 nM were added. The viability was assessed 72 h after dosing by measuring the intracellular ATP content. The inhibition percentage of viable cells by the compounds was calculated by comparing with the DMSO group, and the IC50 value was calculated.

A further experiment addresses Wee-1 kinase (Homo sapiens (Human), UniProt P30291). The experiment in a line: Inhibitory activity against Wee-1 kinase (ADP-GLO chemiluminescence). In kind it is biochemical. The note with it: 60 min reaction at room temperature. On the procedure: Example 71. Assay of Inhibitory Activity of Compounds of the Present Invention Against Wee-1 Kinase
After the serially diluted compound and an enzyme were mixed, the mixture was incubated at room temperature (25° C.) for 15 min, and then centrifuged at 1000 rpm for 1 min for mixing. 5 μL of substrate was added to start the reaction. After the mixture was reacted at room temperature for 60 min, 5 μL of ADP-GLO reagent was added and the mixture was centrifuged at 1000 rpm for 1 min for mixing. The mixture was subsequently incubated at room temperature for 60 min, and then 10 μL of kinase detection reagent was added. The mixture was incubated for 60 min, and the chemiluminescence was determined. The inhibition percentage of the enzyme activity by the compounds was calculated compared with the DMSO group, and the IC50 values were also calculated.

Experiment [2] concerns MIA PaCa-2 cells. Kind of experiment: In-vitro anti-proliferative activity on MIA PaCa-2 cells (intracellular ATP content). The note with it: compound alone, 72 h after dosing, read-out: IC50 Without GMC, anti-proliferative activity on MIA PaCa-2 cells. In kind it is cell-based. On the procedure:
Example 72. In-Vitro Anti-Proliferative Activity of the Compounds of the Present Invention on MIA PaCa-2 Cells
MIA PaCa-2 cells were seeded on a 384-well plate at 3000 cells/well. After overnight adherence culture, DMSO or the compounds serially diluted 1:5 from 5 μM were added. The viability was assessed 72 h after dosing by measuring the intracellular ATP content. The inhibition percentage of viable cells by the compounds was calculated by comparing with the DMSO group, and the IC50 value was calculated.

The mark [3] stands for this setting: read-out: IC50 GMC (20 nM), anti-proliferative activity on MIA PaCa-2 cells, in combination with 20 nM gemcitabine, 72 h after dosing, ATP content.
The mark [4] stands for this setting: Homo sapiens, MIA PaCa-2, 72 h, read-out: IC50 GMC (20 nM), anti-proliferative activity on MIA PaCa-2 cells, in combination with 20 nM gemcitabine, 72 h after dosing, ATP content.

In patent US20240182482A1, “FUSED CYCLIC COMPOUND AS WEE-1 INHIBITOR, PREPARATION METHOD THEREFOR AND USE THEREOF” (WIGEN BIOMEDICINE TECHNOLOGY (SHANGHAI) CO., LTD., priority 2021, published 2024) one finds IC50 data, which are given here for 19 compounds.

Wee-1 kinase, sequence (P30291 whole entry): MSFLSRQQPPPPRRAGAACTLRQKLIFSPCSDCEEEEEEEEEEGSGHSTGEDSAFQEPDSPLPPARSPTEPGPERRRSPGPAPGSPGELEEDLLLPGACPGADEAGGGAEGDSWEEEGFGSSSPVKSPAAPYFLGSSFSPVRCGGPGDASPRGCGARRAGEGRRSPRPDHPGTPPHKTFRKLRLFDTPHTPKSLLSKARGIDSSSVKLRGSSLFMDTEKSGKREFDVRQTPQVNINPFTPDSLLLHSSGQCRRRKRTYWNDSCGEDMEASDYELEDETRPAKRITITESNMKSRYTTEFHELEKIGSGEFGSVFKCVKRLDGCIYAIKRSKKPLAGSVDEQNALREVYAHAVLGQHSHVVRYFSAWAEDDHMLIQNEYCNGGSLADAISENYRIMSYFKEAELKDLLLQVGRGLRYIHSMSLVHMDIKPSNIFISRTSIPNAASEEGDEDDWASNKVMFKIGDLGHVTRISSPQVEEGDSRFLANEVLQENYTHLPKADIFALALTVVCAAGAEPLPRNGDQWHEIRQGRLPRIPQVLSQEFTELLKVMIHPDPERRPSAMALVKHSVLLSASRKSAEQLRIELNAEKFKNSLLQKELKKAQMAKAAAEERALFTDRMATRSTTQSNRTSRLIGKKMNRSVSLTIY

Turning to `CN1Cc2cc(Nc3ncc4c(F)cn(-c5cccc(N=S(C)(C)=O)n5)c4n3)cc3c2C(CCC3)C1` (stereo not drawn) [Compound 1], the half-maximal inhibitory concentration (IC50) in the experiment on MIA PaCa-2 cells [1] (setting [3]) was 1.7 nM; on Wee-1 kinase, under 2 nM; with MIA PaCa-2 cells [2], 37 nM.
In the case of `CCS(=O)(CC)=Nc1cccc(-n2cc(F)c3cnc(Nc4cc5c6c(c4)CN(C)CC6CCC5)nc32)n1` (stereo not drawn) [Compound 2], the IC50 was 2.4 nM in the experiment with MIA PaCa-2 cells [1] (setting [4]); 1.96 nM against Wee-1 kinase; 106 nM with MIA PaCa-2 cells [2] (Homo sapiens, MIA PaCa-2, 72 h).
In the case of `CN1Cc2cc(Nc3ncc4c(F)cn(-c5cccc(N=S6(=O)CCC6)n5)c4n3)cc3c2C(CCC3)C1` (stereo not drawn) [Compound 3], the IC50 with MIA PaCa-2 cells [1] (setting [4]) was 2.3 nM; against Wee-1 kinase it was 2.48 nM; with MIA PaCa-2 cells [2] (Homo sapiens, MIA PaCa-2, 72 h), 128 nM.
Take `CN1Cc2cc(Nc3ncc4c(F)cn(-c5cccc(N=S6(=O)CCCC6)n5)c4n3)cc3c2C(CCC3)C1` (stereo not drawn) [Compound 4]: the IC50 in the experiment on MIA PaCa-2 cells [1] (setting [4]) turned out to be 2.1 nM; against Wee-1 kinase it was 2.47 nM; with MIA PaCa-2 cells [2] (Homo sapiens, MIA PaCa-2, 72 h), 115 nM.
Turning to `CN1Cc2cc(Nc3ncc4c(F)cn(-c5cccc(N=S6(=O)CCOCC6)n5)c4n3)cc3c2C(CCC3)C1` (stereo not drawn) [Compound 5], the results for the IC50 in the experiment with MIA PaCa-2 cells [1] (setting [3]), against Wee-1 kinase and in the experiment on MIA PaCa-2 cells [2] were 2.4 nM, 2.79 nM and 139 nM, respectively.
As to `CN1Cc2cc(Nc3ncc4c(F)cn(-c5cccc(P(C)(C)=O)n5)c4n3)cc3c2C(CCC3)C1` (stereo not drawn) [Compound 14], the concentration for half-maximal inhibition (IC50) with MIA PaCa-2 cells [1] (setting [4]) worked out at 1.3 nM; against Wee-1 kinase, 2.71 nM; in the experiment on MIA PaCa-2 cells [2] (Homo sapiens, MIA PaCa-2, 72 h), 331 nM.
As to `[2H]C([2H])([2H])S(=O)(=Nc1cccc(-n2cc(F)c3cnc(Nc4cc5c6c(c4)CN(C)CC6CCC5)nc32)n1)C([2H])([2H])[2H]` (stereo not drawn) [Compound 21], the IC50 in the experiment on MIA PaCa-2 cells [1] (setting [4]) was found to be 1.7 nM; against Wee-1 kinase it was 1.67 nM; with MIA PaCa-2 cells [2] (Homo sapiens, MIA PaCa-2, 72 h) it was 85 nM.
Take `CN1Cc2cc(Nc3ncc4c(F)cn(-c5ccc(F)c(N=S(C)(C)=O)n5)c4n3)cc3c2C(CCC3)C1` (stereo not drawn) [Compound 23]: the IC50 was 1.2 nM in the experiment on MIA PaCa-2 cells [1] (setting [3]); 2.05 nM at Wee-1 kinase; 155 nM with MIA PaCa-2 cells [2] (Homo sapiens, MIA PaCa-2, 72 h).
For the compound `CN1Cc2cc(Nc3ncc4c(F)cn(-c5ccc(Cl)c(N=S(C)(C)=O)n5)c4n3)cc3c2C(CCC3)C1` (stereo not drawn) [Compound 24], the IC50 is 1.6 nM in the experiment on MIA PaCa-2 cells [1] (setting [4]); 2.49 nM on Wee-1 kinase; 184 nM with MIA PaCa-2 cells [2] (Homo sapiens, MIA PaCa-2, 72 h).
For `CCN1Cc2cc(Nc3ncc4c(C)cn(-c5cccc(N=S(C)(C)=O)n5)c4n3)cc3c2C(CCC3)C1` (stereo not drawn) [Compound 28] the same measures were 1.3 nM, 2.33 nM and 172 nM.
Regarding `CN1Cc2cc(Nc3ncc4c(F)cn(-c5cccc(N=S(C)(C)=O)n5)c4n3)cc3c2C(CCC3)C1` (stereo not drawn) [Compound 63], the IC50 in the experiment with MIA PaCa-2 cells [1] (setting [4]) came out at 2.3 nM; against Wee-1 kinase it was 3.47 nM; in the experiment with MIA PaCa-2 cells [2], 173 nM.
As to `CN1Cc2cc(Nc3ncc4c(F)cn(-c5ccc(F)c(N=S(C)(C)=O)n5)c4n3)cc3c2C(CCC3)C1` (stereo not drawn) [Compound 64], the results for the IC50 in the experiment with MIA PaCa-2 cells [1] (setting [3]), at Wee-1 kinase and with MIA PaCa-2 cells [2] were 2.5 nM, 3.36 nM and 179 nM, respectively.
`CN1Cc2cc(Nc3ncc4c(F)cn(-c5ccc(F)c(N=S(C)(C)=O)n5)c4n3)cc3c2[C@H](CCC3)C1` [Compound 65]: the 50% inhibitory concentration (IC50) was found to be 1.4 nM with MIA PaCa-2 cells [1] (setting [4]); 1.56 nM against Wee-1 kinase; 78 nM in the experiment on MIA PaCa-2 cells [2] (Homo sapiens, MIA PaCa-2, 72 h).
In the case of `CN1Cc2cc(Nc3ncc4c(F)cn(-c5cccc(N=S(C)(C)=O)n5)c4n3)cc3c2[C@H](CCC3)C1` [Compound 66], the IC50 with MIA PaCa-2 cells [1] (setting [4]) is under 1 nM; in the experiment on MIA PaCa-2 cells [1] (setting [3]), 0.9 nM; at Wee-1 kinase, 1.19 nM; with MIA PaCa-2 cells [2] (Homo sapiens, MIA PaCa-2, 72 h), 28 nM.
For `[2H]C([2H])([2H])N1Cc2cc(Nc3ncc4c(F)cn(-c5cccc(N=S(C)(C)=O)n5)c4n3)cc3c2[C@H](CCC3)C1` [Compound 67], in that order: under 1 nM, 0.8 nM, 1.86 nM and 49 nM.
Regarding `[2H]C([2H])([2H])N1Cc2cc(Nc3ncc4c(F)cn(-c5ccc(F)c(N=S(C)(C)=O)n5)c4n3)cc3c2[C@H](CCC3)C1` [Compound 68], the IC50 was under 1 nM in the experiment on MIA PaCa-2 cells [1] (setting [4]); 0.9 nM with MIA PaCa-2 cells [1] (setting [3]); 1.97 nM on Wee-1 kinase; 76 nM in the experiment with MIA PaCa-2 cells [2] (Homo sapiens, MIA PaCa-2, 72 h).
On Wee-1 kinase, `[2H]C([2H])([2H])S(=O)(=Nc1cccc(-n2cc(F)c3cnc(Nc4cc5c6c(c4)CN(C)C[C@H]6CCC5)nc32)n1)C([2H])([2H])[2H]` [Compound 69] came in with a half-inhibitory concentration (IC50) of 1.54 nM.
Turning to `[2H]C([2H])([2H])S(=O)(=Nc1nc(-n2cc(F)c3cnc(Nc4cc5c6c(c4)CN(C)C[C@H]6CCC5)nc32)ccc1F)C([2H])([2H])[2H]` [Compound 70], the half-inhibitory concentration (IC50) in the experiment with MIA PaCa-2 cells [1] (setting [4]) amounted to 1.1 nM; at Wee-1 kinase it was 1.84 nM; with MIA PaCa-2 cells [2] (Homo sapiens, MIA PaCa-2, 72 h), 89 nM.
As to `C=CCn1c(=O)c2cnc(Nc3ccc(N4CCN(C)CC4)cc3)nc2n1-c1cccc(C(C)(C)O)n1` [MK-1775, reference compound], the IC50 with MIA PaCa-2 cells [1] (setting [4]) is 24.2 nM; with MIA PaCa-2 cells [2] (Homo sapiens, MIA PaCa-2, 72 h), 904 nM.
